Literature values, collected in patent publication US20210322447A1, “T[…]-DOSING DELIVERY OF PSYCHEDELICS DERIVATIVES” (PIKE THERAPEUTICS, INC., priority 2020, published 2021).

Tests used:
[1] = system: serotonin receptors in the brain; conditions: once ingested; typical duration
central nervous system = conditions: cited from Nelson and Foltz, Anal. Chem. 64, 1578-1585, 1992

Compound	duration of mind-altering effects [1]	concentration sufficient to induce hallucination (central nervous system) [µg]
CN(C)CCc1c[nH]c2cccc(OP(=O)(O)O)c12 [psilocybin, [3-(2-dimethylaminoethyl)-1H-indol-4-yl] dihydrogen phosphate]	two to six	–
CCN(CC)C(=O)[C@@H]1C=C2c3cccc4[nH]cc(c34)C[C@H]2N(C)C1 [LSD, 9,10-didehydro-N,N-diethyl-6-methylergoline-80-carboxamide]	–	20 to 80
